Test results from patent publication US20090291857A1, “METHODS TO IDENTIFY INHIBITORS OF THE UNFOLDED PROTEIN RESPONSE” (THE BOARD OF TRUSTEES OF THE LELAND STANFORD JUNIOR …, priority 2006, published 2009).

Target: T1, IRE1α-cyto (Homo sapiens, UniProt O75460)
T1 construct: purified the full cytosolic portion of IRE1α (His6-IRE1α-cyto) containing both kinase and endonuclease domains; 6x-His; made in house; host or cells: bacteria
Assay: In vitro IRE1α endonuclease (ribonuclease) assay
Type: biochemical
Details: 2.5 μM
Experimental: The in vitro ribonuclease assays were carried out using purified IRE1α-cyto essentially as described. Gonzalez and Walter, Methods Mol Biol 160: 25-36 (2001); Gonzalez et al., Embo J 18: 3119-3132 (1999). For each reaction, 5 μg purified IRE1α-cyto was incubated with 300 ng of fluorescein-labeled RNA stem-loop substrate at 37° C. in a total volume of 300 μl. Aliquots (50 μl) were withdrawn at the indicated times and mixed with an equal volume of stop solution. Id. Reactions were analyzed by SDS-PAGE using 10-20% acrylamide gradient gels. The sequence for the hXBP-1 3′ RNA stem-loop substrate is as follows: 5′[…] G 3′ (SEQ ID NO: 8). […]
HT1080 cells were exposed to DMSO vehicle (lane 1), irestatin 9389 (2.5 μM; lane 2) for 16 hours or Tm (5 μg/ml; lane 3) for 8 hours. Following treatments, cells were harvested, lysed, and analyzed by immunoblotting using anti-Grp78 antibody (top) or anti-actin (bottom) as a loading control. […] Cell lysates were analyzed by Western immunoblotting using anti-IRE1α (bottom) or anti-phospho-IRE1α antibodies (top). […] Lysates were analyzed by Western blot using antisera specific for phospho-JNK1 (top) or total JNK1 (bottom). […] F. Quantification of RNA cleavage kinetics. […] Samples were analyzed as in (E).
Next we determined whether irestatin 9389 inhibited the endonuclease function of IRE1α. […]

T1 sequence (O75460 465-977 limits assumed): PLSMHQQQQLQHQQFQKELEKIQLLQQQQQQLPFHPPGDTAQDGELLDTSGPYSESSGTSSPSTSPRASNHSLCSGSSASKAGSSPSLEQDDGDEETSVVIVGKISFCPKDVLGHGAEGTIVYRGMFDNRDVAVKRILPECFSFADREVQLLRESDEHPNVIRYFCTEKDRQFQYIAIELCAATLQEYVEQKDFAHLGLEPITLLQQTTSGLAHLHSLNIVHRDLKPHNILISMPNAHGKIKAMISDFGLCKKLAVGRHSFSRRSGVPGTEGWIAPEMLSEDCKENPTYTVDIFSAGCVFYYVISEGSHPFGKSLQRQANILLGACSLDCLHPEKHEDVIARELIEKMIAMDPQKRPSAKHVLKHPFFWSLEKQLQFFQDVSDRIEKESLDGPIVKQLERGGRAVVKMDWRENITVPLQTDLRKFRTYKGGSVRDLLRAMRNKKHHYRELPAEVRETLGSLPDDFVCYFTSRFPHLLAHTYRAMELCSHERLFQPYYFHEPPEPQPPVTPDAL

In the case of Cc1csc(NC(=O)CSc2nc3c(c(C(F)(F)F)c2C#N)CCC3)n1 [Compound 9389], the “cleavage of XBP-1 RNA substrate by His6-IRE1α-cyto” value was “strongly inhibited cleavage”.
